In brackets after ≈: the same amount, converted by molar mass. Starred links: 1 amine or outer side, 2 acyl side, 3 side chain; linkers in the order of their positions; H or OH if unused. Non-standard residues stand in square brackets, D forms with d. Residues, ends and D or L forms follow the SMILES beside them. No end group written: not given here. *: point of attachment. X1 = N=c1ccc2c(-c3ccccc3C(=O)*)c3ccc(N)c(S(=O)(=O)O)c3oc-2c1S(=O)(=O)O; NMeGABA = CN(CCCC(=O)[*:2])[*:1]

5 compounds from article PMC9960778, “Polymer-Antimicrobial Peptide Constructs with Tailored Drug-Release Behavior” (Pharmaceutics, 2023) can be followed below.

For series [1], the system named is Acinetobacter baumanii (CCM 2355). Format: cell-based. The settings on record: A. baumanii (Gram-negative); Mueller-Hinton broth/PBS 1:1, 35 °C, OD 625 nm every 60 min for 20 h; MIC as molar concentration of PEP; mean of at least three independent experiments. The protocol: (§1) The antibacterial properties of HPMA-PEP constructs were tested against Acinetobacter baumanii (CCM 2355), Escherichia coli (CCM 4517), Staphylococcus epidermidis (CCM 2124), and Staphylococcus aureus (CCM 4516) (Czech Collection of Microorganisms, Brno, Czech Republic) in vitro. A single colony of the test microorganism was transferred into 5 mL of sterile broth (Luria-Bertani medium, Sigma) and cultivated overnight at 37 °C to prepare a bacterial test suspension in a double-concentrated Mueller-Hinton broth at a density equivalent to a 0.5 McFarland standard. Desired weight of lyophilized PEP or polymer-PEP was resuspended in sterile PBS and a concentration series was prepared. The bacterial suspension was then mixed with different concentrations of the PEP or polymer-PEP construct diluted in 1:1 in PBS and cultured at 35 °C. The bacterial growth was measured spectrophotometrically at 625 nm every 60 min for 20 h using an EON microplate spectrophotometer (Agilent Technologies, Santa Clara, CA, USA).
(§2) The MIC was determined as the lowest concentration of PEP or polymer-PEP construct without observable bacterial growth. MIC was calculated as the molar concentration of PEP. […] If the bacteria were absent after 24 h of incubation, it was termed MBC.

The test system of series [2] is Escherichia coli (CCM 4517). Format: cell-based. The settings on record: E. coli (Gram-negative); Mueller-Hinton broth/PBS 1:1, 35 °C, OD 625 nm every 60 min for 20 h; MIC as molar concentration of PEP; mean of at least three independent experiments. Here is the method:
as §1, §2

Series [3] concerns Staphylococcus aureus (CCM 4516). It is filed as cell-based. The settings on record: S. aureus (Gram-positive); Mueller-Hinton broth/PBS 1:1, 35 °C, OD 625 nm every 60 min for 20 h; MIC as molar concentration of PEP; mean of at least three independent experiments. The protocol: as §1, §2
In series [4] the test system is Staphylococcus epidermidis (CCM 2124). Format: cell-based. As to conditions: S. epidermidis (Gram-positive); Mueller-Hinton broth/PBS 1:1, 35 °C, OD 625 nm every 60 min for 20 h; MIC as molar concentration of PEP; mean of at least three independent experiments. The protocol: as §1, §2
Series [5] concerns E. coli. Nature of the series: Fluorescent microscopy of labeled peptide/constructs with bacteria. The settings on record: labeled sample added at amount corresponding to its MIC, spinning disc confocal, ex 488 nm, em 525 nm. Format: cell-based, Escherichia coli.
Experimental: The densities of the fresh overnight bacterial cultures were adjusted to the 0.5 McFarland standard, and 100 µL was placed in a sterile 96-well plate. The plates were incubated at room temperature for 2 h before the amount of fluorescently labeled F-PEP or F-P-PEP construct corresponding to its MIC was added to the appropriate wells. Images were captured immediately using a spinning disc confocal microscope (Andor xD revolution) on the Olympus IX81 platform and analyzed with iQ3 software, the excitation wavelength was 488 nm and the emission wavelength was 525 nm.
Series [6] relates to S. aureus. As to conditions: labeled sample added at amount corresponding to its MIC, spinning disc confocal, ex 488 nm, em 525 nm. Here is the method: The densities of the fresh overnight bacterial cultures were adjusted to the 0.5 McFarland standard, and 100 µL was placed in a sterile 96-well plate. […] Images were captured immediately using a spinning disc confocal microscope (Andor xD revolution) on the Olympus IX81 platform and analyzed with iQ3 software, the excitation wavelength was 488 nm and the emission wavelength was 525 nm.

The next series has as its target cathepsin B (Homo sapiens, UniProt P07858). Format: in vitro ADME. Here is the method: The enzymatic activity of cathepsin B was probed immediately before the release measurements as described previously. The enzymolysis was monitored by HPLC and the rate of PEP release was calculated from the area of the corresponding polymer peaks from the fluorescent detector (excitation 280 nm, emission 350 nm of Trp in PEP). The spontaneous hydrolysis and release of PEP were measured by HPLC in two different PBS buffers to mimic the bloodstream, pH 7.4 and pH 5.5, at 37 °C.

Series [7] deals with E. coli. Nature of the series: Transmission electron microscopy (TEM) of treated bacteria. It is filed as cell-based, Escherichia coli. As to conditions: 2 × MIC, 2.5 h of incubation, negative staining. Here is the method:
(§3) Bacteria in the exponential growth phase were mixed with the PEP or polymer-PEP constructs at a concentration equivalent to 2×MIC. After 2.5 h of incubation, 10 µL of the suspension was placed on a copper carbon-coated electron microscopic copper grid (Sigma Aldrich, Saint Louis, MO, USA) and left to adhere for 10 min. Then, the grid was washed twice with dH2O and stained with 0.8% sodium silicotungstate (Agar Scientific, Stansted, UK), pH 7.4, for 40 s. The samples were analyzed using a JEOL JEM-1010 instrument (JEOL Ltd., Tokyo, Japan) with an SIS MegaView III digital camera (Soft Imaging Systems) at acceleration voltage 80 kV and AnalySIS Software 2.0.

In series [8] the test system is S. aureus. The description is as above. It is filed as cell-based, Staphylococcus aureus. The settings on record: 2×MIC, 2.5 h of incubation, negative staining. Here is the method:
as §3

`CC[C@H](C)[C@H](NC(=O)[C@H](CCCCN)NC(=O)[C@H](CCCCN)NC(=O)[C@H](CC(C)C)NC(=O)[C@H](CC(C)C)NC(=O)[C@H](CCCCN)NC(=O)[C@H](CCSC)NC(=O)[C@H](Cc1c[nH]c2ccccc12)NC(=O)[C@H](CCCCN)NC(=O)CNC(=O)CCCN(C)C(=O)c1ccccc1-c1c2ccc(=N)c(S(=O)(=O)O)c-2oc2c(S(=O)(=O)O)c(N)ccc12)C(=O)N[C@@H](CC(C)C)C(=O)N[C@@H](CCCCN)C(N)=O` [F-PEP] (X1-[NMeGABA]GKWMKLLKKILK-NH2): the MIC in series [1] came out at 36.5 µM (≈ 75.1 µg/mL); in [2], 18.2 µM (≈ 37.4 µg/mL); in series [3], 72.9 µM (≈ 150 µg/mL); in series [4], 29.2 µM (≈ 60.1 µg/mL). Further, in the series with E. coli [5], the “Interaction / accumulation on bacterial cells (fluorescence microscopy)” value is “accumulation of F-PEP and F-P-PEP on the bacterial cells”.

Turning to GKWMKLLKKILK-NH2 [PEP], the MIC in series [1] turned out to be 5 µM; in series [2], 5 µM; in series [3], 10 µM; in [4] it was 3.4 µM.

As for “p(HPMA-co-Ma-β-Ala-ATTO-488-co-Ma-β-Ala-DBCO-azide-PEP) [F-P-PEP]”, the MIC in [1] worked out at 38.7 µM; in [2], 77.5 µM; in series [4], 77.5 µM. In addition, the “Interaction / accumulation on bacterial cells (fluorescence microscopy)” value with E. coli [5] is “accumulation of F-PEP and F-P-PEP on the bacterial cells”; in the series on S. aureus [6], “considerably less F-P-PEP accumulated on S. aureus”.

As to “p(HPMA-co-Ma-β-Ala-DBCO-ValCit-PEP) [P-ValCit-PEP, enzymatically cleavable polymer-PEP construct, ValCit spacer]”, the MIC turned out to be 16.8 µM in [1] and 134 µM in series [2]. In the series with cathepsin B, the “PEP release in contact with cathepsin B” value is recorded as “not releasing the PEP”.

“p(HPMA-co-Ma-β-Ala-DBCO-azide-PEP) [P-PEP, non-cleavable polymer-PEP construct, control system]”: the MIC in series [1] was 9.3 µM; in series [2] it was 74.1 µM; in [4], 14.8 µM. Also, the “Effect on bacterial cell morphology (TEM)” value in the series with E. coli [7] is “induced cell morphological changes”; with S. aureus [8], “induced cell morphological changes, cell wall disruption and leakage of the cytoplasm”.
